Legend:
[1] = test system: poly(I:C)-treated mice; assay: Poly(I:C) pulmonary NET induction, mouse model of RNA viral lung infection; type: in vivo; settings: for NET induction (CitH3 and MPO-DNA complexes in BALF and lung tissue): ELISA, FIGS. 2E-2H; for neutrophils in the BALF and in the lung: compared with poly(I:C) only, FIGS. 6D-6F; for neutrophil levels in the blood: cytofluorimetry, FIGS. 6B and 6C; for morbidity, measured as temperature drop / lung permeability (albumin content in BALF) / lung functionality (airway hyperreactivity to methacholine): ricolinostat 30 mg/kg/dose or GSK484 25 mg/kg/dose i.p., vs poly(I:C) only; for morbidity, measured as temperature drop: FIG. 2B; for lung permeability (albumin content in BALF): FIG. 2C; for lung functionality (airway hyperreactivity to methacholine): FIG. 2D
Experimental: Mice were intratracheally treated with 2.5 mg/kg poly(I:C) or saline daily for 4 days and euthanized 18 h post the last poly(I:C) instillation. Ricolinostat (30 mg/kg/dose) or GSK484 (25/mg/kg/dose) was administered intraperitoneally at day 2, day 4, and 3 h before the endpoint. • (B) Body temperature measurements at the endpoint. • (C) Lung permeability was measured as albumin content level in the BALF (n=5). • (D) Measure of airway hyperreactivity (AHR) in the indicated groups in response to increasing concentration of methacholine. RI, responsiveness index. • (E-H) CitH3 and MPO-DNA levels were analyzed by ELISA in BALFs (E, F) and in lungs (G, H) of mice treated as indicated. The saline group represents mice that received saline instead of poly(I:C). NT group represents mice that were challenged with poly(I:C) without receiving any drug. Statistics were calculated using one-way ANOVA (B, C, E-H) and two-way ANOVA with Tukey's analysis (D) (*p<0.05; **p<0.01; ***p<0.001; ****p<0.0001. n.s., not significant). n=10 (B, D) and 15 (E-H) for each group except for the GSK484-treated group (n=5). Gray stars represent comparison of all experimental groups with the saline-treated control. Black stars represent comparison between drug-treated groups and mice treated with poly(I:C) alone. Violin plots represent median (dashed line) with quartiles (dotted line). See also FIGS. 6A-F.
Nuclei are stained with DAPI (blue), and anti-neutrophils antibody (red). Scale bar=100 μm. • B-F) Neutrophils numbers and percentage were calculated in blood (B, C), BALFs (D, E), and lung tissues (F) of mice challenged, or not, with poly(I:C). The saline group represents mice that received saline instead of poly (I:C). NT group represent mice that were challenged with poly (I:C) without receiving any drug. Ricolinostat (30 mg/kg/dose) or GSK484 (25 mg/kg/dose) were administered intraperitoneally at day 2, day 4 and 3 h prior the endpoint. Violin plots represent median (dashed line) with quartiles (dotted line). Statistics were calculated using One-way ANOVA (*P<0.05; **P<0.01; ***P<0.001; ****P<0.0001; n.s., not significant). Grey stars represent comparison of all experimental groups with the saline control. Black stars represent comparison of drug treated groups with NT group.
NETosis was measured in bronco-alveolar lavage fluid or lung tissue homogenates as quantity of citrullinated histone H3 with Citrullinated histone H3 ELISA kit (Cayman) and as quantity of myeloperoxidase (MPO)-DNA complexes by using a modified Cell Death Detection ELISA (Roche). Briefly, anti-myeloperoxidase antibody (ThermoFisher) was used to coat a high-binding 96 multi-well plate overnight at 4° C. Following a 1 h blocking with 2% BSA/PBS solution, samples were added for an overnight incubation at 4° C. Finally, DNA was detected with Cell Death Detection kit according to manufacture instruction. Absorbance was measured at 405 nm and MPO-DNA complex levels were quantified as normalized relative to saline.
6-8 weeks-old female mice were treated daily with 2.5 mg/kg of poly (I:C) for 4 days and euthanized 18 hours post the last poly(I:C) intra-tracheal instillation, as previously described (Broggi et al., 2020). Temperatures were monitored with a rectal probe. NETosis was measured in bronco-alveolar lavage fluid and lung homogenates as quantity of citrullinated histone H3 and quantity of MPO-DNA complexes. Ricolinostat (30 mg/kg/dose) and GSK484 (25 mg/kg/dose) were administered intraperitoneally at day 2, day 4 and 3 hours prior the end point.

[2] = test system: Murine neutrophils; assay: Phagocytosis assay with fluorescent E. coli; type: cell-based, mouse; settings: ricolinostat 10 μM, fluorescent E. coli 1 h; FIG. 1H
Experimental: FIGS. 1A-H. Class I/II HDACs drive NET formation • (A and B) Freshly purified human (A) or mouse (B) neutrophils were treated with the indicated HDAC inhibitors at different doses (10, 2, 0.4, 0.08 μM), or with GSK484 (10 μM), for 1 h and then stimulated with 1 μM PMA for 3 h. Cells were fixed and stained with anti-citrullinated histone H3 (CitH3) antibody. NETosis induction was measured as the level of anti-CitH3 fluorescent signal. PMA alone represents 100% of NET induction. “-”: Cells treated with the highest dose of the indicated drug but not activated with PMA. • (C and D) Human neutrophils were treated, or not, with ricolinostat or GSK484 and then stimulated with 1 μM PMA. NETosis induction was measured as area of nuclei stained with DAPI. (C) 3D reconstruction of nuclei in each treatment (grid size 7.8 μm). (D) Quantification of DAPI signal from multiple fields of view (D) (n=9 for unstimulated, not pretreated with any drug [NT] and ricolinostat, n=7 for GSK484). • (E and F) Human neutrophils were treated as in (C-D), and immunoblot analysis of the indicated proteins was performed. Relative quantification of band intensity was analyzed with ImageJ software (F). White violins plots depict the quantification of histone H3 acetylation; red violin plots depict the quantification of histone H3 citrullination. […] ROS production was measured by luminescence with luminol-HRP. […]

Row | SMILES | NET induction (CitH3 and MPO-DNA complexes in BALF and lung tissue) [1] | neutrophils in the BALF and in the lung [1] | neutrophil levels in the blood [1] | morbidity, measured as temperature drop [1] | lung permeability (albumin content in BALF) [1] | lung functionality (airway hyperreactivity to methacholine) [1] | bacterial phagocytosis (percentage of neutrophils positive for E. coli) [2] | activity compared with GSK484 in all the conditions tested ([1]; outcompeted i.e. increased survival of neutrophils in the BALF)
1 | COc1cc(C(=O)N2CC[C@@H](O)[C@@H](N)C2)cc2nc(-c3cc4ccccc4n3CC3CC3)n(C)c12 [GSK484] | abrogated | trend of accumulation | did not change significantly | significantly reduced | significantly preserved | significantly preserved | – | –
2 | O=C(CCCCCCNC(=O)c1cnc(N(c2ccccc2)c2ccccc2)nc1)NO [ricolinostat] | abrogated | trend of accumulation | did not change significantly | significantly reduced | significantly preserved | significantly preserved | excluded that ricolinostat administration altered | phenocopied, and in some cases outcompeted

Source: patent publication US20240366594A1, “Small Molecule Inhibitors of Formation of Neutrophil-Derived Extracellular Traps (NETosis) and Uses Thereof” (The Brigham and Women's Hospital, Inc., priority 2021, published 2024)
